Results: patent US20100022521A1, “COMPOUNDS” (Hansa Metallwerke AG, priority 2005, published 2010)
pKi: −log10 of the molar value.

Assays:
[1] = target: T1, rat mGluR1 (Rattus norvegicus, UniProt P23385); experiment: MGluR1 receptor binding test ([3H]R214127 displacement); details: rat cerebellar membrane; radioligand [3H]R214127 (3 nM); read-out: mGlu1 Ki
T1 construct: rat cerebellar membrane preparation was used; from tissue; host or cells: rat cerebellum (membrane preparation)
Protocol: MGluR1 Receptor Binding Test
MGluR1 receptor binding testes were performed according to modified method of Lavreysen et al. (Mol. Pharm., 2003, 63, 1082). Based on the high homology between the human and rat mGluR1 receptors, rat cerebellar membrane preparation was used to determine the binding characteristics of reference compounds and novel compounds to the rat mGluR1. As radioligand [3H]R214127 (3 nM) was used and the nonspecific binding was determined in the presence of 1 μM of R214127.
IC-50 values were determined from displacement curves by nonlinear regression analysis and were converted by equation method of Cheng and Prusoff (Biochem. Pharmacol., 1973, 22, 3099) to Ki values.

[2] = target: mGluR5 (UniProt P31424); experiment: MGluR5 receptor binding test ([3H]-M-MPEP displacement); set-up: species or system rat; details: radioligand [3H]-M-MPEP (2 nM); species not given; read-out: mGlu5 Ki
Protocol: MGluR5 Receptor Binding Tests
Rat cerebro-cortical membrane preparation was used to determine the binding characteristics of reference compounds and novel compounds to the rat mGluR5. The A18 cell line expressing hmGluR5a (purchased from Euroscreen) was used to determine binding characteristics of the chemical compounds to the human mGluR5a receptor. As radioligand [3H]-M-MPEP (2 nM) was used. The nonspecific binding was determined in the presence of 10 μM M-MPEP.

T1 sequence (P23385 19-1199): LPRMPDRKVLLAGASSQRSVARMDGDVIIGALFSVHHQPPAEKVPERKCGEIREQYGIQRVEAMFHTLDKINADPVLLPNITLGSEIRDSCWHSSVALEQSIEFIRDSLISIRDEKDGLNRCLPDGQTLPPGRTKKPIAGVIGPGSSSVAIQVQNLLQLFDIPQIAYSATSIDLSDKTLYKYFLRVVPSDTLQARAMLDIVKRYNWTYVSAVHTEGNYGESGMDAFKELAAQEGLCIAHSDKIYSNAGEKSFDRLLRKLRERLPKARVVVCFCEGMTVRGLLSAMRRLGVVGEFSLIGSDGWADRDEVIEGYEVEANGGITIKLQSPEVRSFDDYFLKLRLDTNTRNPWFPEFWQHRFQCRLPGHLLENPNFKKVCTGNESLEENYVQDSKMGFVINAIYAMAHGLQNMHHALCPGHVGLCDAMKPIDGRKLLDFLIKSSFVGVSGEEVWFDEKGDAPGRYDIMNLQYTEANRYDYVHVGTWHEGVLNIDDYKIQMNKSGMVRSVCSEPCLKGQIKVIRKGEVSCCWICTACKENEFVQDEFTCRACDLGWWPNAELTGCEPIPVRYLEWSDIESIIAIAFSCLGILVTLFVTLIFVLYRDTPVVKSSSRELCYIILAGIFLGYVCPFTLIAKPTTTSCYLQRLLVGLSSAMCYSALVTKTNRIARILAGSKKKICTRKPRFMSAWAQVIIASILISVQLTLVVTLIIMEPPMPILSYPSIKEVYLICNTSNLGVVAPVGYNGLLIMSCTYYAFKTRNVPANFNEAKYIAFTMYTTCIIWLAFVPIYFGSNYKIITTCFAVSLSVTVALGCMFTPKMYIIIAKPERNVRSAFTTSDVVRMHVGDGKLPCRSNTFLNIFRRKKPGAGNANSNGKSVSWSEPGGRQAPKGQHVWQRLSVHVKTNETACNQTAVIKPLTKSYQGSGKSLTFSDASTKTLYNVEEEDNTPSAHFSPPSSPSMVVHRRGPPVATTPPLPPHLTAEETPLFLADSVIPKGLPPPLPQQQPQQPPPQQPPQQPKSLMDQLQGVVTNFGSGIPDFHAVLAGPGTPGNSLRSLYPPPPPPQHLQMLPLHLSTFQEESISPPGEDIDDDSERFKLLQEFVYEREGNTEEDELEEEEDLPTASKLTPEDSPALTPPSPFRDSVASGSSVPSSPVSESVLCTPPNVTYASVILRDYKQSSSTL

| SMILES | pKi [1] | pKi [2] |
| --- | --- | --- |
| O=S(=O)(c1ccccc1)c1sc2ncccc2c1-c1ccc(Cl)cc1 [Compound 8] | < 5.82 | > 6.30 |
| O=S(=O)(c1ccc(Cl)c(Cl)c1)c1sc2ncccc2c1-c1ccc(Cl)cc1 [Compound 80] | 5.82 to 6.30 | > 6.30 |
| O=S(=O)(Cc1ccccc1)c1sc2ncccc2c1-c1ccc(Cl)cc1 [Compound 17] | < 5.82 | 5.82 to 6.30 |
| N#Cc1cccc(S(=O)(=O)c2sc3nc(F)ccc3c2-c2ccc(F)cc2)c1 [Compound 75] | < 5.82 | > 6.30 |
| Cc1ccc(S(=O)(=O)c2sc3ncccc3c2-c2ccc(F)cc2)cc1F [Compound 82] | < 5.82 | > 6.30 |
| Cc1ccc(-c2c(S(=O)(=O)c3cccc(C#N)c3)sc3ncccc23)cc1 [Compound 59] | > 6.30 | > 6.30 |
| O=S(=O)(c1ccc(Cl)cc1Cl)c1sc2ncccc2c1-c1ccc(Cl)cc1 [Compound 33] | < 5.82 | 5.82 to 6.30 |
| O=S(=O)(c1sc2ncccc2c1-c1ccc(Cl)cc1)C1CCCCC1 [Compound 16] | < 5.82 | < 5.82 |
| N#Cc1cccc(S(=O)(=O)c2sc3ncccc3c2-c2ccccc2Cl)c1 [Compound 83] | > 6.30 | > 6.30 |
| N#Cc1ccc(S(=O)(=O)c2sc3ncccc3c2-c2ccc(Cl)cc2)cc1 [Compound 7] | < 5.82 | > 6.30 |
| Cc1ccc(S(=O)(=O)c2sc3nc(F)ccc3c2-c2ccc(Cl)cc2)cc1F [Compound 89] | < 5.82 | > 6.30 |
| Cc1ccc(S(=O)(=O)c2sc3ncccc3c2-c2ccc(Cl)cc2)cc1 [Compound 4] | 5.82 to 6.30 | > 6.30 |
| CCCCS(=O)(=O)c1sc2ncccc2c1-c1ccc(Cl)cc1 [Compound 11] | < 5.82 | 5.82 to 6.30 |
| Cc1nc(C)c(S(=O)(=O)c2sc3ncccc3c2-c2ccc(Cl)cc2)s1 [Compound 12] | < 5.82 | 5.82 to 6.30 |
| [O-][S+](c1ccc(Cl)cc1)c1sc2ncccc2c1-c1ccc(Cl)cc1 (stereo not drawn) [Compound 2] | > 6.30 | > 6.30 |
| O=S(=O)(c1cccc(C(F)(F)F)c1)c1sc2ncccc2c1-c1ccc(Cl)cc1 [Compound 28] | < 5.82 | > 6.30 |
| COc1ccc(S(=O)(=O)c2sc3ncccc3c2-c2ccc(Cl)cc2)cc1F [Compound 91] | 5.82 to 6.30 | > 6.30 |
| Cc1cccc(-c2c(S(=O)(=O)c3cccc(C#N)c3)sc3ncccc23)c1 [Compound 53] | 5.82 to 6.30 | > 6.30 |
| COc1ccc(S(=O)(=O)c2sc3ncccc3c2-c2ccc(Cl)cc2)cc1 [Compound 48] | > 6.30 | > 6.30 |
| N#Cc1cc(F)cc(S(=O)(=O)c2sc3nc(F)ccc3c2-c2ccc(Cl)cc2)c1 [Compound 90, 2-(3-Cyano-5-fluoro-benzenesulfonyl)-3-(4-chloro-phenyl)-6-fluoro-thieno[2,3-b]pyridine] | < 5.82 | > 6.30 |
| O=S(=O)(c1cccc(Cl)c1)c1sc2ncccc2c1-c1ccc(Cl)cc1 [Compound 19] | < 5.82 | > 6.30 |

| SMILES | pKi [1] | pKi [2] |
| --- | --- | --- |
| O=S(=O)(c1ccc(Cl)cc1)c1sc2ncccc2c1-c1ccc(Cl)cc1 [Compound 1, 2-(4-Chloro-benzenesulfonyl)-3-(4-chloro-phenyl)-thieno[2,3-b]pyridine] | < 5.82 | > 6.30 |
| CC(=O)Nc1ccc(S(=O)(=O)c2sc3ncccc3c2-c2ccc(Cl)cc2)cc1 [Compound 5] | < 5.82 | < 5.82 |
| CC1CCN(c2c(S(=O)(=O)c3cccc(C#N)c3)sc3ncccc23)CC1 [Compound 36, 2-(3-Cyano-benzenesulfonyl)-3-(4-methyl-piperidinyl)-thieno[2,3-b]pyridine] | > 6.30 | > 6.30 |
| O=S(=O)(c1ccc(F)cc1)c1sc2ncccc2c1-c1ccc(Cl)cc1 [Compound 3] | < 5.82 | > 6.30 |
| Nc1ccnc2sc(S(=O)(=O)c3ccc(Cl)cc3)c(-c3ccc(Cl)cc3)c12 [Compound 125, 4-Amino-2-(4-chloro-benzenesulfonyl)-3-(4-chloro-phenyl)-thieno[2,3-b]pyridine] | – | > 6.30 |
| N#Cc1cc(F)cc(S(=O)(=O)c2sc3ncccc3c2-c2cccc(F)c2)c1 [Compound 110, 2-(3-Cyano-5-fluoro-benzenesulfonyl)-3-(3-fluoro-phenyl)-thieno[2,3-b]pyridine] | – | > 6.30 |
| CC1CCN(c2cc(C#N)cc(S(=O)(=O)c3sc4ncccc4c3N3CCC(C)CC3)c2)CC1 [Compound 95] | – | 5.82 to 6.30 |
| COc1ccc(S(=O)(=O)c2sc3ncccc3c2NC(=O)N2CCC(C)CC2)cc1 [Compound 120, N-[2-(4-methoxy-benzenesulfonyl)-thieno[2,3b]pyridin-3-yl]-4-methyl-piperidine-1-carboxamide] | – | < 5.82 |
| O=S(=O)(c1ccc(Cl)cc1)c1sc2ncccc2c1-c1cccc(F)c1 [Compound 109] | – | > 6.30 |
| N#Cc1cc(F)cc(S(=O)(=O)c2sc3ncccc3c2-c2cccc(Cl)c2)c1 [Compound 136] | – | > 6.30 |
| COc1ccc(-c2c(S(=O)(=O)c3cccc(C#N)c3)sc3ncccc23)cc1 [Compound 84] | – | > 6.30 |
| O=S(=O)(c1ccc(Cl)cc1)c1sc2ncc(F)cc2c1-c1cccc(F)c1 [Compound 137, 2-(4-Chloro-benzenesulfonyl)-3-(3-fluoro-phenyl)-5-fluoro-thieno[2,3-b]pyridine] | – | > 6.30 |
| Cc1ccc(S(=O)(=O)c2sc3ncccc3c2-c2ccc(Cl)cc2)cc1Cl [Compound 63] | – | > 6.30 |
| N#Cc1ccc(-c2c(S(=O)(=O)c3cccc(C#N)c3)sc3ncccc23)cc1 [Compound 69] | – | > 6.30 |
| O=S(=O)(c1ccc(Cl)cc1)c1sc2nc(Cl)ccc2c1-c1ccc(Cl)cc1 [Compound 43, 6-chloro-2-(4-chloro-benzenesulfonyl)-3-(4-chloro-phenyl)-thieno[2,3-b]pyridine] | – | > 6.30 |
| Cc1ccc(S(=O)(=O)c2sc3ncccc3c2-c2ccc(F)cc2)cc1Cl [Compound 23] | – | > 6.30 |
| N#Cc1cc(F)cc(S(=O)(=O)c2sc3nc(Cl)ccc3c2-c2cccc(F)c2)c1 [Compound 138] | – | > 6.30 |
| O=C(Nc1c(S(=O)(=O)c2ccc(Cl)cc2)sc2ncccc12)N1CCCCC1 [Compound 121] | – | < 5.82 |
| Cc1ccc(S(=O)(=O)c2sc3ncccc3c2-c2ccc(Cl)cc2)cc1C [Compound 62] | – | > 6.30 |
| CN1CCN(c2c(S(=O)(=O)c3ccc(Cl)cc3)sc3ncccc23)CC1 [Compound 106] | – | > 6.30 |
| O=S(=O)(c1ccc(Cl)cc1)c1sc2ncccc2c1-n1cncn1 [Compound 133] | – | 5.82 to 6.30 |

| SMILES | pKi [1] | pKi [2] |
| --- | --- | --- |
| O=S(=O)(c1cc(F)cc(F)c1)c1sc2ncccc2c1-c1ccc(Cl)cc1 [Compound 87] | – | > 6.30 |
| O=S(=O)(c1ccc(Cl)cc1)c1sc2ncccc2c1N1CCC(O)CC1 [Compound 99] | – | 5.82 to 6.30 |
| CN(C)c1ccc(S(=O)(=O)c2sc3ncccc3c2-c2ccc(Cl)cc2)cc1 [Compound 71] | – | > 6.30 |
| CS(=O)(=O)c1ccc(-c2c(S(=O)(=O)c3ccc(Cl)cc3)sc3ncccc23)cc1 [Compound 108] | – | < 5.82 |
| O=S(=O)(c1ccc(Cl)cc1)c1sc2ncc(Cl)cc2c1-c1ccc(Cl)cc1 [Compound 97, 5-Chloro-2-(4-chloro-benzenesulfonyl)-3-(4-chloro-phenyl)-thieno[2,3-b]pyridine] | – | > 6.30 |
| O=S(=O)(c1ccc(Cl)cc1)c1sc2ncccc2c1N1CCOCC1 [Compound 46] | – | > 6.30 |
| N#Cc1cccc(S(=O)(=O)c2sc3nc(F)ccc3c2-c2ccc(Cl)cc2)c1 [Compound 65] | – | > 6.30 |
| N#Cc1ccc(S(=O)(=O)c2sc3ncccc3c2-c2cccc(Cl)c2)cc1 [Compound 42] | – | > 6.30 |
| Cc1ccc(-c2c(S(=O)(=O)c3ccc(C)cc3)sc3ncccc23)cc1 [Compound 27] | – | > 6.30 |
| O=S(=O)(c1cccc(Cl)c1)c1sc2ncccc2c1-c1ccc(F)cc1 [Compound 54] | – | > 6.30 |
| N#Cc1cc(F)cc(S(=O)(=O)c2sc3ncccc3c2-c2ccc(F)cc2)c1 [Compound 30] | – | > 6.30 |
| N#Cc1cc(F)cc(S(=O)(=O)c2sc3ncccc3c2-c2ccccc2F)c1 [Compound 132] | – | > 6.30 |
| O=[N+]([O-])c1cnc2sc(S(=O)(=O)c3ccc(Cl)cc3)c(-c3ccc(Cl)cc3)c2c1 [Compound 72, 2-(4-chloro-benzenesulfonyl)-3-(4-chloro-phenyl)-5-nitro-thieno[2,3-b]pyridine] | – | 5.82 to 6.30 |
| Cc1ccc(-c2c(S(=O)(=O)c3cccc(Cl)c3)sc3ncccc23)cc1 [Compound 37] | – | > 6.30 |
| COc1ccc(S(=O)(=O)c2sc3ncccc3c2-c2cccc(Cl)c2)cc1F [Compound 128] | – | > 6.30 |
| Cc1cccc(S(=O)(=O)c2sc3ncccc3c2-c2ccc(F)cc2)c1 [Compound 61] | – | > 6.30 |
| Cc1ccc(S(=O)(=O)c2sc3ncccc3c2-c2ccc(F)cc2)cc1 [Compound 55] | – | > 6.30 |
| Cc1cccc(S(=O)(=O)c2sc3nc(Cl)ccc3c2-c2ccc(Cl)cc2)c1 [Compound 50] | – | > 6.30 |
| N#Cc1cccc(S(=O)(=O)c2sc3ncccc3c2-c2ccncc2)c1 [Compound 73] | – | > 6.30 |
| O=S(=O)(c1ccc(Cl)cc1)c1sc2ncccc2c1N1CCC(CO)CC1 [Compound 140] | – | > 6.30 |
